# From US11952586B2, “B-cell cultivation method” (Hoffmann-La Roche Inc., priority 2017, dated 2024)
# Tested on: single deposited B-cells
# Assay: co-cultivation of single deposited B-cells with EL-4 B5 cells; antigen binding immunoassay (HSA)
# Assay type: cell-based, rabbit
# Method: Single cell sorted B-cells were cultured in 96-well plates with 200 μl/well EL-4 B5 medium with Pansorbin Cells (SAC) (Calbiochem (Merck), Darmstadt, Deutschland), EL-4 B5 cells (0-5×10^4/well) and rabbit thymocyte supernatant or cytokine mix, respectively, for 7 days at 37° C. in an atmosphere of 5% CO2 in the incubator. B-cell culture supernatants were removed for screening and the cells harvested immediately for variable region gene cloning or frozen at −80° C. in 100 μl RLT buffer (Qiagen, Hilden, Germany).
# The assay was performed at room temperature (RT) on 384-well MaxiSorp microtiter plates (Thermo Scientific) with PBS (phosphate buffered saline) buffer supplemented with 0.5% Gelatin and 0.025% Tween®-20. The plates were coated with 0.5 μg/ml of human serum albumin (HSA, Sigma-Aldrich) for at least 2 hours to overnight. After washing (3×) with PBST (PBS with 0.1% Tween®-20) buffer the wells were blocked with PBS with 0.5% Gelatin and 0.1% Tween®-20. Again, the plates were washed three-times and afterwards dilutions of B-cell supernatants were added. After an incubation of 60 min and 3 washing steps with PBST a 1:4,000 dilution of a HRP-conjugated anti-rabbit IgG antibody (Amersham) was transferred to the wells and incubated for 60 min. Finally, the plates were repeatedly washed (6×) with PBST and developed with BM Blue® HRP substrate solution for 30 min. Absorbance was measured at 392-405 nm.
# [1] = PMA 0.048 ng/ml, 3 Gy, 15k/Well
# [2] = PMA 0.048 ng/ml, 4 Gy, 20k/Well
# [3] = PMA 0.048 ng/ml, 5 Gy, 20k/Well
# [4] = PMA 0.048 ng/ml, 8 Gy, 20k/Well
# [5] = PMA 0.048 ng/ml, 50 Gy, 50k/Well
# [6] = PMA 0.109 ng/ml, 3 Gy, 15k/Well
# [7] = PMA 0.109 ng/ml, 4 Gy, 20k/Well
# [8] = PMA 0.109 ng/ml, 5 Gy, 20k/Well
# [9] = PMA 0.109 ng/ml, 8 Gy, 20k/Well
# [10] = PMA 0.109 ng/ml, 50 Gy, 50k/Well
# [11] = PMA 0.25 ng/ml, 50 Gy, 50k/Well
# [12] = PMA 0.57 ng/ml, 50 Gy, 50k/Well
# [13] = PMA 1.3 ng/ml, 3 Gy, 15k/Well, HSA immunized rabbit
smiles,measurement,setting,value
"CCCCCCCCCCCCCC(=O)O[C@@H]1[C@@H](C)[C@@]2(O)[C@@H](C=C(CO)C[C@]3(O)C(=O)C(C)=C[C@@H]23)[C@@H]2C(C)(C)[C@]12OC(C)=O [PMA, phorbol-12-myristate-13-acetate]",HSA (absolute corrected) Freq./plate OD>c,[1],25 % total
same,HSA (absolute corrected) Freq./plate OD>c and rbIgG+,[1],48.8 % IgG
same,HSA (absolute corrected) Freq./plate OD>c,[2],36.9 % total
same,HSA (absolute corrected) Freq./plate OD>c and rbIgG+,[2],50 % IgG
same,HSA (absolute corrected) Freq./plate OD>c,[3],27.4 % total
same,HSA (absolute corrected) Freq./plate OD>c and rbIgG+,[3],38.3 % IgG
same,HSA (absolute corrected) Freq./plate OD>c,[4],42.9 % total
same,HSA (absolute corrected) Freq./plate OD>c and rbIgG+,[4],49.3 % IgG
same,HSA (absolute corrected) Freq./plate OD>c,[5],14.3 % total
same,HSA (absolute corrected) Freq./plate OD>c and rbIgG+,[5],58.3 % IgG
same,HSA (absolute corrected) Freq./plate OD>c,[6],9.5 % total
same,HSA (absolute corrected) Freq./plate OD>c and rbIgG+,[6],17.5 % IgG
same,HSA (absolute corrected) Freq./plate OD>c,[7],32.1 % total
same,HSA (absolute corrected) Freq./plate OD>c and rbIgG+,[7],42.2 % IgG
same,HSA (absolute corrected) Freq./plate OD>c,[8],42.9 % total
same,HSA (absolute corrected) Freq./plate OD>c and rbIgG+,[8],47.1 % IgG
same,HSA (absolute corrected) Freq./plate OD>c,[9],32.1 % total
same,HSA (absolute corrected) Freq./plate OD>c and rbIgG+,[9],41.5 % IgG
same,HSA (absolute corrected) Freq./plate OD>c,[10],9.5 % total
same,HSA (absolute corrected) Freq./plate OD>c and rbIgG+,[10],50 % IgG
same,HSA (absolute corrected) Freq./plate OD>c,"PMA 0.25 ng/ml, 3 Gy, 15k/Well",21.4 % total
same,HSA (absolute corrected) Freq./plate OD>c and rbIgG+,"PMA 0.25 ng/ml, 3 Gy, 15k/Well",45 % IgG
same,HSA (absolute corrected) Freq./plate OD>c,"PMA 0.25 ng/ml, 4 Gy, 20k/Well",33.3 % total
same,HSA (absolute corrected) Freq./plate OD>c and rbIgG+,"PMA 0.25 ng/ml, 4 Gy, 20k/Well",44.4 % IgG
same,HSA (absolute corrected) Freq./plate OD>c,"PMA 0.25 ng/ml, 5 Gy, 20k/Well",32.1 % total
same,HSA (absolute corrected) Freq./plate OD>c and rbIgG+,"PMA 0.25 ng/ml, 5 Gy, 20k/Well",38 % IgG
same,HSA (absolute corrected) Freq./plate OD>c,"PMA 0.25 ng/ml, 8 Gy, 20k/Well",32.1 % total
same,HSA (absolute corrected) Freq./plate OD>c and rbIgG+,"PMA 0.25 ng/ml, 8 Gy, 20k/Well",36.5 % IgG
same,HSA (absolute corrected) Freq./plate OD>c,[11],13.1 % total
same,HSA (absolute corrected) Freq./plate OD>c and rbIgG+,[11],47.1 % IgG
same,HSA (absolute corrected) Freq./plate OD>c,"PMA 0.57 ng/ml, 3 Gy, 15k/Well",11.9 % total
same,HSA (absolute corrected) Freq./plate OD>c and rbIgG+,"PMA 0.57 ng/ml, 3 Gy, 15k/Well",33.3 % IgG
same,HSA (absolute corrected) Freq./plate OD>c,"PMA 0.57 ng/ml, 4 Gy, 20k/Well",26.2 % total
same,HSA (absolute corrected) Freq./plate OD>c and rbIgG+,"PMA 0.57 ng/ml, 4 Gy, 20k/Well",36.1 % IgG
same,HSA (absolute corrected) Freq./plate OD>c,"PMA 0.57 ng/ml, 5 Gy, 20k/Well",38.1 % total
same,HSA (absolute corrected) Freq./plate OD>c and rbIgG+,"PMA 0.57 ng/ml, 5 Gy, 20k/Well",43.8 % IgG
same,HSA (absolute corrected) Freq./plate OD>c,"PMA 0.57 ng/ml, 8 Gy, 20k/Well",35.7 % total
same,HSA (absolute corrected) Freq./plate OD>c and rbIgG+,"PMA 0.57 ng/ml, 8 Gy, 20k/Well",44.1 % IgG
same,HSA (absolute corrected) Freq./plate OD>c,[12],40.5 % total
same,HSA (absolute corrected) Freq./plate OD>c and rbIgG+,[12],46.5 % IgG
same,HSA (absolute corrected) Freq./plate OD>c,[13],3.6 % total
same,HSA (absolute corrected) Freq./plate OD>c and rbIgG+,[13],42.9 % IgG
same,HSA (absolute corrected) Freq./plate OD>c,"PMA 1.3 ng/ml, 4 Gy, 20k/Well",31 % total
same,HSA (absolute corrected) Freq./plate OD>c and rbIgG+,"PMA 1.3 ng/ml, 4 Gy, 20k/Well",42.6 % IgG
same,HSA (absolute corrected) Freq./plate OD>c,"PMA 1.3 ng/ml, 5 Gy, 20k/Well",34.5 % total
same,HSA (absolute corrected) Freq./plate OD>c and rbIgG+,"PMA 1.3 ng/ml, 5 Gy, 20k/Well",40.8 % IgG
same,HSA (absolute corrected) Freq./plate OD>c,"PMA 1.3 ng/ml, 8 Gy, 20k/Well",36.9 % total
same,HSA (absolute corrected) Freq./plate OD>c and rbIgG+,"PMA 1.3 ng/ml, 8 Gy, 20k/Well",40.5 % IgG
same,HSA (absolute corrected) Freq./plate OD>c,"PMA 1.3 ng/ml, 50 Gy, 50k/Well",40.5 % total
same,HSA (absolute corrected) Freq./plate OD>c and rbIgG+,"PMA 1.3 ng/ml, 50 Gy, 50k/Well",47.1 % IgG
